# Read-outs that look alike come from different tables or passages of the source.
# Key:
# S. pyogenes A20201 = assay: Protective dose PD50, mice infected with lethal inoculum, oral treatment, S. pyogenes A20201; assay type: in vivo; settings: Streptococcus pyogenes, 120 h
# P. mirabilis A9554 = assay: Protective dose PD50, mice infected with lethal inoculum, oral treatment, P. mirabilis A9554; assay type: in vivo
# [1] = system: Gp Ia, Gp Ib, Gn Ia organisms of Table 2; assay: Test medium comparison, agar dilution MIC, Mueller-Hinton agar versus nutrient agar
# N. meningitidis = assay: In vitro activity against Neisseria (MIC), N. meningitidis; assay type: cell-based
# [2] = mouse, in vivo
# B. fragilis = assay: In vitro activity against anaerobes (MIC), B. fragilis; assay type: cell-based; settings: Bacteroides fragilis
# [3] = system: Gp Ia: S. aureus Smith A9537, A9497, Terajima, A9534, A9601; settings: Staphylococcus aureus
# P. acnes A21933 = assay: In vitro activity against anaerobes (MIC), P. acnes; assay type: cell-based; settings: Cutibacterium acnes; Gp cocci; P. acnes A21933; read-out: MIC
# in vivo = settings: mouse; for half-life: T1/2
# S. aureus Smith = assay: Protective dose, mice infected with lethal inoculum, oral treatment, S. aureus Smith; assay type: in vivo; settings: Staphylococcus aureus, po, 120 h, oral, read-out: Protective dose (PD50), S. aureus Smith
# P. anaerobius A21905 = assay: In vitro activity against anaerobes (MIC), P. anaerobius; assay type: cell-based; settings: Peptostreptococcus anaerobius; Gp cocci; P. anaerobius A21905; read-out: MIC
# N. gonorrheae = assay: In vitro activity against Neisseria (MIC), N. gonorrheae; assay type: cell-based
# H. influenza A9729 = assay: Protective dose PD50, mice infected with lethal inoculum, oral treatment, H. influenza A9729; assay type: in vivo; settings: Mus musculus, 120 h
# Text: The structure activity correlations drawn from the foregoing in vitro studies are born out by the results of in vivo studies in mice. Table 4 is a tabulation of the protective doses for mice infected with a lethal inoculum of a bacteria. Two different bacteria were employed in the studies, one a Gram+ organism and the other a Gram- organism. The protective dose (PD50) is that dose which when administered to a group of infected mice results in 50% survival after five days. Normally untreated infected mice die within three days following injection of the lethal inoculum.
# Protective Dose PD50 for Mice Infected with Lethal Inoculum
# S. aureus BX-1633 = assay: Protective dose PD50, mice infected with lethal inoculum, oral treatment, S. aureus BX-1633; assay type: in vivo; settings: Staphylococcus aureus, BX1633, 120 h
# H. influenzae = assay: In vitro activity against Haemophilis (MIC), H. influenzae; assay type: cell-based; settings: Haemophilus influenzae, Compound 9 lot 2
# C. perfringens A9645 = assay: microbe, parasite or virus in culture; assay type: cell-based; settings: Clostridium perfringens
# Gp, rods; Gp, cocci = assay: microbe, parasite or virus in culture; assay type: cell-based, C. difficile; C. perfringens; P. acnes; P. anaerobius; settings: read-out: MIC, Geometric Mean
# E. coli Juhl = assay: Protective dose, mice infected with lethal inoculum, oral treatment, E. coli Juhl; assay type: in vivo
# [4] = system: Gp Ib: S. aureus 193, BX-1633-2 A9606, A15092, Russell, A9602; settings: Staphylococcus aureus
# S. pyogenes = assay: In vitro activity against Streptococci (MIC), S. pyogenes; assay type: cell-based; settings: Streptococcus pyogenes, Compound 9 lot 2
# S. pneumoniae = assay: In vitro activity against Streptococci (MIC), S. pneumoniae; assay type: cell-based; settings: Streptococcus pneumoniae, Compound 9 lot 2
smiles,measurement,setting,value
"C/C=C\C1=C(C(=O)O)N2C(=O)[C@@H](NC(=O)[C@H](N)c3ccc(O)cc3)[C@H]2SC1 [Compound 9, 7β-[D-2-amino-(p-hydroxyphenyl)acetamido]-3-[(Z)-1-propen-1-yl]-3-cephem-4-carboxylic Acid]",ED50,S. pyogenes A20201,0.11 mg/kg
same,Protective Dose PD50,P. mirabilis A9554,1.8
same,difference in MIC between the two media,[1],less than three fold
same,MIC,"N. meningitidis; N. meningitidis A21487, Compound 9 lot 2",0.8 µg/mL
same,MIC,"N. meningitidis; N. meningitidis A21496, Compound 9 lot 2",0.8 µg/mL
same,MIC,"N. meningitidis; N. meningitidis A21497, Compound 9 lot 2",0.8 µg/mL
same,MIC,"N. meningitidis; Neisseria meningitidis, read-out: MIC",0.8 µg/mL
same,MIC,"N. meningitidis; Neisseria meningitidis, read-out: MIC, Geometric Mean",0.8 µg/mL
same,T1/2,"[2]; im, 20 mg/kg",0.48
same,T1/2,"[2]; po, 20 mg/kg",1.7
same,T1/2,"[2]; po, 100 mg/kg",1.3 h
same,MIC,"B. fragilis; B. fragilis A20928-1, A21900, A20935, β-lactamase (-), read-out: MIC, Geometric Mean",3.2 µg/mL
same,MIC,"B. fragilis; B. fragilis A20928-1, β-lactamase (-), read-out: MIC",0.8 µg/mL
same,MIC,"B. fragilis; B. fragilis A20935, β-lactamase (-), read-out: MIC",0.8 µg/mL
same,MIC,"B. fragilis; B. fragilis A21900, β-lactamase (-), clindamycin resistant, read-out: MIC",50 µg/mL
same,MIC,"B. fragilis; B. fragilis A22021, β-lactamase (+), read-out: MIC",> 100 µg/mL
same,MIC,"B. fragilis; B. fragilis A22053, A22021, A22693, β-lactamase (+), read-out: MIC, Geometric Mean",> 100 µg/mL
same,MIC,"B. fragilis; B. fragilis A22053, β-lactamase (+), read-out: MIC",50 µg/mL
same,MIC,"B. fragilis; B. fragilis A22533, β-lactamase (+), read-out: MIC",> 100 µg/mL
same,MIC,"B. fragilis; B. fragilis A22693, β-lactamase (+), read-out: MIC",> 100 µg/mL
same,MIC,"B. fragilis; B. fragilis A22695, A22533, β-lactamase (+), read-out: MIC, Geometric Mean",> 100 µg/mL
same,MIC,"B. fragilis; B. fragilis A22695, β-lactamase (+), read-out: MIC",> 100 µg/mL
same,MIC,"[3]; read-out: Minimum Inhibitory Concentration Gp Ia, Mueller-Hinton agar, run 1, average of five organisms",0.23 µg/mL
same,MIC,"[3]; read-out: Minimum Inhibitory Concentration Gp Ia, Mueller-Hinton agar, run 2, average of five organisms",0.35 µg/mL
same,MIC,"[3]; read-out: Minimum inhibitory Concentration Gp Ia, Test Medium Comparison, A: Mueller-Hinton agar, average values",0.23 µg/mL
same,MIC,"[3]; read-out: Minimum inhibitory Concentration Gp Ia, Test Medium Comparison, B: Nutrient agar, average values",0.17 µg/mL
same,MIC,P. acnes A21933,0.4 µg/mL
same,Cmax,"in vivo; im, 20 mg/kg",28000 ng/mL
same,half-life,"in vivo; im, 20 mg/kg",52.8 min
same,AUC,"in vivo; po, 20 mg/kg, AUC*",26000 ng·h/mL
same,Cmax,"in vivo; po, 20 mg/kg",15000 ng/mL
same,half-life,"in vivo; po, 20 mg/kg",114 min
same,AUC,"in vivo; po, 100 mg/kg, AUC",106000 ng·h/mL
same,Cmax,"in vivo; po, 100 mg/kg",56000 ng/mL
same,half-life,"in vivo; po, 100 mg/kg",114 min
same,ED50,"S. aureus Smith; 50% survival for 5 days, groups of 5 mice",0.14 mg/kg
same,ED50,"S. aureus Smith; separate run of Compound 42 and BMY28100, cephalexin/cefadroxil controls not available",0.16 mg/kg
same,MIC,P. anaerobius A21905,0.8 µg/mL
same,MIC,"N. gonorrheae; N. gonorrheae A20142, Compound 9 lot 2",0.8 µg/mL
same,MIC,"N. gonorrheae; N. gonorrheae A20143, Compound 9 lot 2",0.8 µg/mL
same,MIC,"N. gonorrheae; N. gonorrheae A20154, Compound 9 lot 2",0.8 µg/mL
same,MIC,"N. gonorrheae; N. gonorrheae A20155, Compound 9 lot 2",0.8 µg/mL
same,MIC,N. gonorrheae; read-out: MIC,0.8 µg/mL
same,MIC,"N. gonorrheae; read-out: MIC, Geometric Mean",0.8 µg/mL
same,ED50,H. influenza A9729,1.8 mg/kg
same,ED50,S. aureus BX-1633,2.2 mg/kg
same,MIC,"H. influenzae; H. influenzae A9729, read-out: MIC",0.8 µg/mL
same,MIC,"H. influenzae; H. influenzae A9833, read-out: MIC",0.8 µg/mL
same,MIC,"H. influenzae; H. influenzae A20177, read-out: MIC",0.8 µg/mL
same,MIC,"H. influenzae; H. influenzae A20193, read-out: MIC",0.8 µg/mL
same,MIC,"H. influenzae; H. influenzae A21523, read-out: MIC",0.8 µg/mL
same,MIC,"H. influenzae; H. influenzae A22482, read-out: MIC",0.8 µg/mL
same,MIC,"H. influenzae; H. influenzae A22483, read-out: MIC",0.8 µg/mL
same,MIC,"H. influenzae; H. influenzae, seven strains above, read-out: MIC, Geometric Mean",0.8 µg/mL
same,MIC,C. perfringens A9645,0.4 µg/mL
same,MIC,"Gp, rods; Gp, cocci",0.95 µg/mL
same,ED50,"E. coli Juhl; Escherichia coli, po, 120 h, oral, 50% survival for 5 days, groups of 5 mice, read-out: Protective dose (PD50), E. coli Juhl",1.2 mg/kg
same,activity against the Gram- infection,E. coli Juhl; in words,more active against the Gram- infection
same,MIC,"[4]; read-out: Minimum Inhibitory Concentration Gp Ib, Mueller-Hinton agar, run 1, average of five organisms",0.92 µg/mL
same,MIC,"[4]; read-out: Minimum Inhibitory Concentration Gp Ib, Mueller-Hinton agar, run 2, average of five organisms",0.8 µg/mL
same,MIC,"[4]; read-out: Minimum inhibitory Concentration Gp Ib, Test Medium Comparison, A: Mueller-Hinton agar, average values",0.92 µg/mL
same,MIC,"[4]; read-out: Minimum inhibitory Concentration Gp Ib, Test Medium Comparison, B: Nutrient agar, average values",0.35 µg/mL
same,MIC,"S. pyogenes; S. pyogenes A9604, read-out: MIC",0.05 µg/mL
same,MIC,"S. pyogenes; S. pyogenes A15040, read-out: MIC",0.05 µg/mL
same,MIC,"S. pyogenes; S. pyogenes A20065, read-out: MIC",0.05 µg/mL
same,MIC,"S. pyogenes; S. pyogenes A20201, read-out: MIC",0.1 µg/mL
same,MIC,"S. pyogenes; S. pyogenes Dick, read-out: MIC",0.05 µg/mL
same,MIC,"S. pyogenes; S. pyogenes S-23, Dick, A9604, A20065, A15040, read-out: MIC, Geometric Mean",0.05 µg/mL
same,MIC,"S. pyogenes; S. pyogenes S-23, read-out: MIC",0.05 µg/mL
same,MIC,"S. pneumoniae; S. pneumoniae A9585, read-out: MIC",0.2 µg/mL
same,MIC,"S. pneumoniae; S. pneumoniae A15069, read-out: MIC",0.2 µg/mL
same,MIC,"S. pneumoniae; S. pneumoniae A20759, read-out: MIC",0.2 µg/mL
same,MIC,"S. pneumoniae; S. pneumoniae Type I, read-out: MIC",0.2 µg/mL
same,MIC,"S. pneumoniae; S. pneumoniae Type II, I, III, A9585, A15069, read-out: MIC, Geometric Mean",0.2 µg/mL
same,MIC,"S. pneumoniae; S. pneumoniae Type II, read-out: MIC",0.2 µg/mL
same,MIC,"S. pneumoniae; S. pneumoniae Type III, read-out: MIC",0.2 µg/mL

# Reference: US4520022A, “Substituted vinyl cephalosporins” (priority 1983, dated 1985)
